Assay results taken from article PMC10282731, “Pyrrolo[2,3-e]indazole as a novel chemotype for both influenza A virus and pneumococcal neuraminidase inhibitors” (RSC Advances, 2023).
In brackets after ≈: the same amount, converted by molar mass. Several values for one entry are separate records, joined by “and”; a condition that tells them apart may be missing. Identical values can stand only once. Like-named read-outs stand apart in the source and are kept apart here.

How the values were obtained:
[1] = test system: influenza A virus A/Jena/8178/09 (subtype A(H1N1)pdm09); assay: Influenza A virus-induced CPE inhibition assay in MDCK cells (A/Jena/8178/09); type: cell-based; conditions: A(H1N1)pdm09, 48 h, maximum 100 µM, n.a. = not active, read-out: IC50 (IAV) Jena/8178
[2] = test system: neuraminidase of influenza A virus (IAV NA); assay: Human erythrocyte-based (hemagglutination-based) viral neuraminidase inhibition assay; type: biochemical, influenza A virus A/Jena/8178/09; conditions: human erythrocytes, 37 °C for 24 h, maximum 100 µM for test compounds
[3] = test system: influenza A virus A/HK/1/68 (subtype H3N2); assay: Influenza A virus-induced CPE inhibition assay in MDCK cells (A/HK/1/68); type: cell-based; conditions: H3N2, 48 h, maximum 100 µM, n.a. = not active, read-out: IC50 (IAV) HK/1/68
[4] = test system: MDCK cells; conditions: read-out: CC50 (MDCK), 72 h incubation, maximum 100 µM
[5] = target: neuraminidase NanA of S. pneumoniae strain DSM20566 (Streptococcus pneumoniae, UniProt P62575); assay: Lectin-based hemagglutination NA inhibition assay with pneumococcal neuraminidase; type: biochemical; conditions: ethanol-precipitated proteins of S. pneumoniae DSM20566, lectin-based hemagglutination assay
[6] = in vitro; conditions: dog
[7] = test system: S. pneumoniae DSM20566; assay: Planktonic growth inhibition, microtiter broth microdilution assay; type: cell-based, Streptococcus pneumoniae; conditions: Streptococcus pneumoniae, read-out: IC50 Planktonic growth
[8] = test system: S. pneumoniae DSM20566; assay: Biofilm formation inhibition assay (crystal violet); type: cell-based, Streptococcus pneumoniae; conditions: Streptococcus pneumoniae, read-out: IC50 Biofilm formation
[9] = S. pneumoniae DSM20566, 24 h, crystal violet, maximum 50 μM

neuraminidase NanA of S. pneumoniae strain DSM20566, sequence (P62575 54-1035): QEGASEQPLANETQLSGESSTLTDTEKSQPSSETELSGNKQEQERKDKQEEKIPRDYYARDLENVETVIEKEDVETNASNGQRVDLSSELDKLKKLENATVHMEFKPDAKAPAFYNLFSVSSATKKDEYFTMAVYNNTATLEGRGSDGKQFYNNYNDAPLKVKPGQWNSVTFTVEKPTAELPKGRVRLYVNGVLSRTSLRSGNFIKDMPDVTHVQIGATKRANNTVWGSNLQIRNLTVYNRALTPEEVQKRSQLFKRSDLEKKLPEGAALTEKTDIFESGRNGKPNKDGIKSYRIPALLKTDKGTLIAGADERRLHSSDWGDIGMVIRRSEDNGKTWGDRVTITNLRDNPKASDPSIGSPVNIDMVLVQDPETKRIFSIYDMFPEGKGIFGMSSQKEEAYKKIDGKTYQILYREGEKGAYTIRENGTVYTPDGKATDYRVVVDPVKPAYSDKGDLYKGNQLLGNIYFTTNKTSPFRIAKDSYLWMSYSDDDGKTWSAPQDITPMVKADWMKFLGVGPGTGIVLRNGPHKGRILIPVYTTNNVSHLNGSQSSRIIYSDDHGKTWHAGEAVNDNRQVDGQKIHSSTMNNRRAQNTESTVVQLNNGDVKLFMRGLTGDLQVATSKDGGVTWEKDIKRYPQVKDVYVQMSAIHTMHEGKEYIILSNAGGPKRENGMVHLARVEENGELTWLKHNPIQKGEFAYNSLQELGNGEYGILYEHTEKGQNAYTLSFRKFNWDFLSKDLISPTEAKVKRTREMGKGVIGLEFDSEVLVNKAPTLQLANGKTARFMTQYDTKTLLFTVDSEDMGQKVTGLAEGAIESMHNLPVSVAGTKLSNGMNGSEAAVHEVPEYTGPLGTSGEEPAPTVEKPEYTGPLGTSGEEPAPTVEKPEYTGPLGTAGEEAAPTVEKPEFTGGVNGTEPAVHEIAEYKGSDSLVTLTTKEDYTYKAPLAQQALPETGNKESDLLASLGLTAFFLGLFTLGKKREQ

Compound	MIC IAV NA (minimum neuraminidase inhibitory concentration) [2]	MIC S.p. NanA (minimum neuraminidase inhibitory concentration) [5]	CC50 at 72 h [6]	IC50 ([1]; Influenza A virus)	melting point	further results
5-Hydroxy-3-ethoxycarbonyl-2-methyl-8-(4-nitrophenyl)-6-phenyl-pyrrolo[2,3-e]indazole [Compound 6e]	54.40 µM	14.32 µM	–	–	–	IC50 [1]: 19.5 µM; IC50 [3]: 16.4 µM; CC50 [4]: > 100 µM
5-hydroxy-3-ethoxycarbonyl-2-methyl-6,8-diphenyl-pyrrolo[2,3-e]indazole [Compound 6a]	70.00 µM	31.60 µM	–	–	–	CC50 [4]: > 100 µM
CCOC(=O)c1c(C)n(C)c2c1cc(O)c1c2c(-c2ccccc2)nn1-c1ccccc1 [Compound 6b, 5-Hydroxy-3-ethoxycarbonyl-1,2-dimethyl-6,8-diphenyl-pyrrolo[2,3-e]indazole]	31.60 µM (≈ 13.4 µg/mL)	31.60 µM (≈ 13.4 µg/mL)	> 100 µM	31.6 µM	270 to 272 °C	–
CCOC(=O)c1c(C)n(Cc2ccccc2)c2c1cc(O)c1c2c(-c2ccccc2)nn1-c1ccccc1 [Compound 6c, 1-Benzyl-5-hydroxy-3-ethoxycarbonyl-2-methyl-6,8-diphenyl-pyrrolo[2,3-e]indazole]	77.20 µM (≈ 38.7 µg/mL)	24.40 µM (≈ 12.2 µg/mL)	–	71.1 µM	256 to 258 °C	IC50 ([7]; DSM20566, 18 h): 8.9 µM; CC50 [6]: > 100 µM; IC50 ([8]; DSM20566, 24 h): 0.93 µM
CCOC(=O)c1c(C)n(-c2ccc(OC)cc2)c2c1cc(O)c1c2c(-c2ccccc2)nn1-c1ccccc1 [Compound 6d, 5-Hydroxy-3-ethoxycarbonyl-1-(4-methoxyphenyl)-2-methyl-6,8-diphenyl-pyrrolo[2,3-e]indazole]	54.40 µM (≈ 28.2 µg/mL)	17.20 µM (≈ 8.9 µg/mL)	> 100 µM	38.6 µM	277 to 279 °C	–
CCOC(=O)c1c(C)n(C)c2c1cc(O)c1c2c(-c2ccc([N+](=O)[O-])cc2)nn1-c1ccccc1 [Compound 6f, 5-Hydroxy-3-ethoxycarbonyl-1,2-dimethyl-8-(4-nitrophenyl)-6-phenyl-pyrrolo[2,3-e]indazole]	77.20 µM (≈ 36.3 µg/mL)	31.60 µM (≈ 14.9 µg/mL)	> 100 µM	–	258 to 261 °C	IC50 ([3]; Influenza A virus): 42.5 µM
CCOC(=O)c1c(C)n(Cc2ccccc2)c2c1cc(O)c1c2c(-c2ccc([N+](=O)[O-])cc2)nn1-c1ccccc1 [Compound 6g, 1-Benzyl-5-hydroxy-3-ethoxycarbonyl-2-methyl-8-(4-nitrophenyl)-6-phenyl-pyrrolo[2,3-e]indazole]	–	–	–	–	226 to 228 °C	CC50 [6]: > 100 µM
CCOC(=O)c1c(C)[nH]c2c1cc(O)c1c2c(-c2ccc(CC)cc2)nn1-c1ccccc1 [Compound 6j]	–	–	> 100 µM	–	–	IC50 ([3]; Influenza A virus): 52.2 µM
CCOC(=O)c1c(C)[nH]c2c1cc(O)c1c2c(-c2cc(Cl)cc(Cl)c2)nn1-c1ccccc1 [Compound 6k]	–	–	> 100 µM	–	–	IC50 ([3]; Influenza A virus): 30.2 µM
CCOC(=O)c1c(C)n(C)c2c1cc(OC(C)=O)c1c2c(-c2ccccc2)nn1-c1ccccc1 [Compound 7a]	100.00 µM (≈ 46.8 µg/mL)	31.60 µM (≈ 14.8 µg/mL)	> 100 µM	83.7 µM	214 to 216 °C	–
CCOC(=O)c1c(C)n(Cc2ccccc2)c2c1cc(OC(C)=O)c1c2c(-c2ccccc2)nn1-c1ccccc1 [Compound 7b]	100.00 µM (≈ 54.4 µg/mL)	31.60 µM (≈ 17.2 µg/mL)	–	38.7 µM	–	CC50 [6]: > 100 µM
CCOC(=O)c1c(CN2CCCCC2)n(C)c2c1cc(OC(C)=O)c1c2c(-c2ccccc2)nn1-c1ccccc1 [Compound 9a]	does not inhibit	54.40 µM (≈ 30 µg/mL)	> 100 µM	–	203 to 205 °C	–
CCOC(=O)c1c(CN(CC)CC)n(C)c2c1cc(OC(C)=O)c1c2c(-c2ccccc2)nn1-c1ccccc1 [Compound 9b]	77.20 µM (≈ 41.6 µg/mL)	24.40 µM (≈ 13.1 µg/mL)	> 100 µM	53.2 µM	–	–
CCOC(=O)c1c(CN2CCCCC2)n(C)c2c1cc(O)c1c2c(-c2ccccc2)nn1-c1ccccc1 [Compound 10a]	54.40 µM (≈ 27.7 µg/mL)	31.60 µM (≈ 16.1 µg/mL)	> 100 µM	86.7 µM	285 °C	IC50 ([7]; S. pneumoniae DSM20566, 18 h, OD 620 nm, maximum 50 μM): 6.88 µM; IC50 [8, 9]: 3.31 µM
CCOC(=O)c1c(CN2CCOCC2)n(Cc2ccccc2)c2c1cc(O)c1c2c(-c2ccccc2)nn1-c1ccccc1 [Compound 10b]	54.40 µM (≈ 31.9 µg/mL)	10.0 µM and 10.00 µM	–	33.2 µM	145 to 146 °C	IC50 ([7]; DSM20566, 18 h): 7.57 µM; CC50 [6]: > 100 µM
CCOC(=O)c1c(C)n(C)c2c1cc(OC)c1c2c(-c2ccc([N+](=O)[O-])cc2)nn1-c1ccccc1 [Compound 11a]	24.40 µM (≈ 11.8 µg/mL)	31.60 µM (≈ 15.3 µg/mL)	> 100 µM	21.5 µM	–	–
CCOC(=O)c1c(C)n(CC)c2c1cc(OCC)c1c2c(-c2ccc([N+](=O)[O-])cc2)nn1-c1ccccc1 [Compound 11b]	77.20 µM (≈ 39.6 µg/mL)	54.40 µM (≈ 27.9 µg/mL)	–	25.5 µM	175 to 177 °C	CC50 [6]: > 100 µM
CCOC(=O)c1c(C)[nH]c2c1cc(OCC)c1c2c(-c2ccc([N+](=O)[O-])cc2)nn1-c1ccccc1 [Compound 11c]	47.20 µM (≈ 22.9 µg/mL)	54.40 µM (≈ 26.4 µg/mL)	> 100 µM	30.3 µM	–	–
CCCCCOc1cc2c(C(=O)OCC)c(C)[nH]c2c2c(-c3ccc([N+](=O)[O-])cc3)nn(-c3ccccc3)c12 [Compound 11d]	–	–	> 100 µM	26.5 µM	–	–
CCOC(=O)c1c(C)[nH]c2c1cc(OC(C)=O)c1c2c(-c2ccc([N+](=O)[O-])cc2)nn1-c1ccccc1 [Compound 11e]	17.20 µM (≈ 8.57 µg/mL)	10.0 µM and 10.00 µM	> 100 µM	16.7 µM	–	–
CCOC(=O)c1c(C)[nH]c2c1cc(O)c1c2c(-c2ccc(N)cc2)nn1-c1ccccc1 [Compound 12]	21.40 µM (≈ 9.13 µg/mL)	10.0 µM and 10.00 µM	> 100 µM	15.7 µM	–	IC50 ([3]; Influenza A virus): 8.54 µM
CCOC(=O)c1c(C)[nH]c2c1cc(O)c1c2c(-c2ccc(-n3cccc3)cc2)nn1-c1ccccc1 [Compound 14]	24.40 µM (≈ 11.6 µg/mL)	10.0 µM and 10.00 µM	> 100 µM	11.4 µM	–	IC50 [8, 9]: 28 µM
CC(=O)N[C@H]1[C@H]([C@H](O)[C@H](O)CO)OC(C(=O)O)=C[C@@H]1N=C(N)N [Zanamivir, zanamivir, reference compound]	3.16 µM (≈ 1.05 µg/mL)	–	–	0.11 µM	–	–
